Measured values taken from patent US20110015080A1, “Solution-based methods for RNA expression profiling” (MASSACHUSETTS INSTITUTE OF TECHNOLOGY, priority 2005, published 2011).
Entries after “also recorded” stand apart in the source; their conditions may differ.

Tests used:
HL-60 cells = assay: Bead-based miRNA expression profiling of HL-60 cells treated with all-trans retinoic acid; assay type: cell-based, human; conditions: 1 μM all-trans retinoic acid, 1, 3 and 5 days
Protocol: Details of sample information are available in Table 9. Total RNAs were prepared from tissues or cell lines using TRIzol (INVITROGEN™, Carlsbad, Calif.), as described (Ramaswamy et al., 2001), and in compliance with IRB protocols. Leukemia bone marrow mononuclear cells were collected from patients treated at ST. JUDE […]′S […] HOSPITAL™ and at DANA-FARBER CANCER […]™ and their immunophenotype and genotype determined as previously described (Ferrando et al., 2002; Yeoh et al., 2002). Normal mouse lung and mouse lung cancer samples were collected from KRasLA1 mice, and genotyped as described (Johnson et al., 2001). Lungs from four- to five-month old mice were inflated with phosphate-buffered saline prior to removal. Individual lung tumors and normal lungs were dissected and immediately frozen on dry ice before RNA preparation. HL-60 cells were plated at 1.5×10^5 cell/ml and induced to differentiate by 1 μM all-trans retinoic acid (SIGMA™, St. Louis, Mo.; in ethanol). […]
miRNA capture probes were 5′-amino-modified oligonucleotides with a 6-carbon linker (IDT). […] Median fluorescence intensity values were measured.
Profiling data were first scaled according to the post-labeling-controls and then the pre-labeling-controls, in order to normalize readings from different probe/bead sets for the same sample, and to normalize for the labeling efficiency, as detailed in Materials and Methods of Example 3. […]

[1] = test system: HL-60 acute myeloblastic leukemia cells; conditions: treatment during a course of 5 days (Stegmaier et al., 2004); cited from earlier work

Q: For `CC1=C(/C=C/C(C)=C/C=C/C(C)=C/C(=O)O)C(C)(C)CCC1` [tretinoin, all-trans-retinoic acid], which “miRNA expression in HL-60 cells” value (HL-60 cells) is on record?
A: induction of many miRNAs coincident with differentiation

Q: And the “miRNA expression in HL-60 cells” value (HL-60 cells; listed as ATRA)?
A: increased expression of many miRNAs

Q: What about the “differentiation of HL-60 cells” value [1] of the same compound?
A: potent inducer of neutrophilic differentiation; also recorded: differentiate with increasing neutrophil characteristics
